We go through nine molecules from patent US5091187A, “Phospholipid-coated microcrystals: injectable formulations of water-insoluble drugs” (priority 1991, dated 1992).

One data set relates to injected muscle. As to the kind of experiment: IM injection of albendazole sulfoxide preparations in rats. The class given is in vivo, rat. Conditions: versus albendazole. The method, then:
The above experimentation was repeated with albendazole sulfoxide, a more water-soluble analogue of the drug. […] Solubility data for albendazole sulfoxide are: 0.42 mg/ml in water, 17.7 mg/ml in propylene glycol and 179.0 mg/ml in ethanol. […] Both preparations normally settled to albendazole sulfoxide concentrations of 20% (w/v). Samples (0.1 ml) of both preparations were injected IM in rats (n=6) and the muscles were examined at necropsy, 2 days post-injection. […] Propylene glycol, which has two OH groups and a dielectric constant of 32, is an example of a polar organic compound which can be substituted for water.

For a further data set, the system named is surgical wounds. To be noted: crystals sprinkled into surgical wounds; cited from earlier work.
A further data set deals with human skin. As to the kind of experiment: Pin prick anesthesia after intradermal injection, human self-experimentation. To be noted: in vivo. The method, then: The Inventor carried out self-experimentation with Preparation B. I made two intradermal injections of 0.15 ml of Preparation B into the skin of my calf, right leg, inside, at sites 12 cm and 22 cm below the knee. The injections raised weals approx. 1.1 cm in diameter. […] The weals subsided within ca. 30 sec. The injected sites were tested for pin prick and cold stimulus anesthesia for the next 24 hr.
As a control for the above, I injected myself with 0.15 ml volumes of solutions of 1%, 2% and 5% tetracaine-H-Cl. In attempt to make the concentrated solutions less damaging, the pH was adjusted from 5.3 to 6.5. Physiological tonicity was maintained by including glucose (4.3%, 3.2% and 0%, respectively). […] The 1% and 2% tetracaine-H-Cl solutions produced only mild erthrema, with return to normal color when the anesthesia subsided. […] The presented anesthesia values were taken at its periphery. […] This poor outcome with the 5% (w/v) tetracaine solution is in stark contrast to the excellent results obtained with the 20% (w/v) tetracaine-H-I microcrystal.

The conditions of data set [1]: water.
For data set [2] the following is noted: IV injection; cited from earlier work.
The nature of data set [3]: pKa and oil/water partition of indomethacin. The format is physicochemical.

Converted amounts (≈) assume the structure as drawn. Where a name gives a salt, the structure may show the parent alone.

By solubility is commonly meant how much of the substance goes into solution per volume. For `CCC[S+]([O-])c1ccc2[nH]c(NC(=O)OC)nc2c1` (stereo not shown) [albendazole sulfoxide], the “rate of absorption into the blood” value in the data set on injected muscle is listed as “Faster rates of absorption into the blood”. Also, the solubility in “physchem” (ethanol, organic solvent or mixture, solubility, in ethanol) was found to be 179000 µg/mL (≈ 636000 µM); in the data set “physchem” (propylene glycol, organic solvent or mixture, solubility, in propylene glycol), 17700 µg/mL (≈ 62900 µM); in “physchem” (water, aqueous solubility), 420 µg/mL (≈ 1490 µM).
Take `O=C1CN(/N=C/c2ccc(-c3ccc([N+](=O)[O-])cc3)o2)C(O)=N1` [Dantrolene]: in the data set “Solubility” (7.9 mg in mineral oil, n-dibutyl ether, methoxyflurane), the “dissolution in organic solvents” value is recorded as “did not dissolve”.
Take `CC[C@H]1OC(=O)[C@H](C)[C@@H](O[C@H]2C[C@@](C)(OC)[C@@H](O)[C@H](C)O2)[C@H](C)[C@@H](O[C@@H]2O[C@H](C)C[C@H](N(C)C)[C@H]2O)[C@](C)(O)C[C@@H](C)C(=O)[C@H](C)[C@@H](O)[C@]1(C)O` [erythromycin]: the solubility in “physchem” (water) was 2000 µg/mL (≈ 2730 µM).
On to `CCCCNc1ccc(C(=O)OCCN(C)C)cc1` [hydroiodic acid (HI) salt of tetracaine, tetracaine-H-I], for which the “duration of local anesthesia” value in the data set with surgical wounds was 45 h. Also, the “extension of duration of action” value with human skin is 5 -fold.
Molecule `CCCSc1ccc2nc(NC(=O)OC)[nH]c2c1` [albendazole] came in with a solubility in the data set “physchem” (water, aqueous solubility) below 100 µg/mL.
The term aqueous solubility denotes the concentration that dissolves in the medium under given conditions. `CN(C)[C@@H]1C(=O)C(C(N)=O)=C(O)[C@@]2(O)C(=O)C3=C(O)c4c(O)cccc4[C@@](C)(O)[C@H]3[C@H](O)[C@@H]12` [oxytetracycline] came in with an aqueous solubility in data set [1] of 1100 µg/mL (≈ 2390 µM).
As for `CN(C)[C@@H]1C(=O)C(C(N)=O)=C(O)[C@@]2(O)C(=O)C3=C(O)c4c(O)cccc4[C@@](C)(O)[C@H]3[C@H](O)[C@@H]12` [OTC, oxytetracycline], in “physchem” (water, aqueous solubility), the solubility is around 1000 µg/mL (≈ 2170 µM).
With `CCCC(C)C1(CC)C(=O)NC(=S)NC1=O` (stereo not shown) [thiopental], the listed adverse reactions entry in data set [2] is listed as “venous thrombosis or phlebitis extending from the site of injection”.
Regarding `COc1ccc2c(c1)c(CC(=O)O)c(C)n2C(=O)c1ccc(Cl)cc1` [Indomethacin], the solubility in the data set “Solubility” (pH 9.6) stood at 30000 µg/mL (≈ 83800 µM); in “Solubility” (water, pH 7, water) it was 376 µg/mL (≈ 1050 µM). For the same molecule, the oil/water partition coefficient is 55/1 in data set [3] (olive oil/water) and 85/1 in data set [3] (pentanol/water).
